Experimental data reported in patent US20040224943A1, “Method of lowering body temperature with (R) - 2,3-benzodiazepines” (priority 2003, published 2004).

Tests used:
mice [1] = assay: Stress Induced Hyperthermia (SIH) assay; format: in vivo; conditions: for lowering the core body temperature: 64 mg/kg intraperitoneally 60 minutes before T1, at both T1 and T2
Protocol: In this assay, two successive temperature measurements are performed, the first, a basal measurement and the second, a measurement of a stress-enhanced temperature. The difference between the two measurements (delta T) is compared in animals treated with a test compound versus animals treated with vehicle alone to determine the test compound's activity in lowering body temperature. […] Besides the effect of drugs on the stress-enhanced temperature (T2), this test also directly measures intrinsic effects of drugs on the core body temperature (T1). Thus a test compound that reduces T2 and thus yields a lower delta T has utility in therapies that are directed to lowering the body temperature of an individual, such as perimenopause and menopause.
Mice, individually housed overnight, were subjected to two sequential rectal temperature measurements ten minutes apart. The first measurement is the basal temperature (T1), the second one the stress-enhanced temperature (T2). The difference (delta T) is the stress-induced hyperthermia. See, Van der Heyden et al., “Stress-induced hyperthermia in singly housed mice,” Physiology and Behavior, 463-470, (1997).
Test animals (group housed mice) were assigned to five groups of ten animals each. The test groups were dosed according to Table 2 below.
The test animals were isolated in an experimental room approximately one hour before lights off on the day before the test. On the day of testing, animals were taken quietly from the cage, held in a supine position, the rectal temperature was measured and the animal was placed back into the cage. The same procedure was repeated 10 minutes later. The first temperature (T1), the second temperature (T2) and the difference (delta T) were recorded. The test compounds were administered intraperitonealy 60 minutes before T1, in order to prevent the stress of being injected from affecting the temperature measurements.

mice [2] = conditions: cited from earlier work
rats = conditions: cited from earlier work
mice [3] = conditions: reported in U.S. Pat. No. 4,322,346; cited from earlier work
central BZ receptors = conditions: cited from earlier work
peripheral BZ receptors = peripheral BZ receptors (Homo sapiens, UniProt P30536); conditions: cited from earlier work
lymphocyte = conditions: in vitro, cited from earlier work

Chain of peripheral BZ receptors (P30536 whole entry): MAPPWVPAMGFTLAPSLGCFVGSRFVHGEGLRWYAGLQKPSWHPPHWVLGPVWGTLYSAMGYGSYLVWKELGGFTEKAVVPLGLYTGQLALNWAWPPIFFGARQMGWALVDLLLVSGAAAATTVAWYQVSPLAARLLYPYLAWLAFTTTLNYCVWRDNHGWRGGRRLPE

Structure (SMILES) | lowering the core body temperature (mice [1]) | inhibition of aggression (mice [2]) [%] | inhibition of muricide (rats) [%] | other results
CC[C@H]1C(C)=NN=C(c2ccc(OC)c(OC)c2)c2cc(OC)c(OC)cc21 [(R)-tofisopam, (R)-1-(3,4-dimethoxyphenyl)-4-methyl-5-ethyl-7,8-dimethoxy-5H-2,3-benzodiazepine] | demonstrated therapeutic activity | – | – | sedation, abnormal gait, ptosis, muscle tone, lacrimation, reactivity to touch (mice [1]; 64 mg/kg intraperitoneally, compared with (S)-enantiomer or racemate): less sedation, abnormal gait, or ptosis, decreased muscle tone, decreased lacrimation, or decreased reactivity to touch
CCC1C(C)=NN=C(c2ccc(O)c(OC)c2)c2cc(OC)c(OC)cc21 (stereo not drawn) [Compound 3, 1-(3-methoxy-4-hydroxyphenyl)-4-methyl-5-ethyl-7,8-dimethoxy-5H-2,3-benzodiazepine] | – | 0 | 0 | narcosis-potentiating activity (mice [3]): narcosis-potentiating activity
CCC1C(C)=NN=C(c2ccc(OC)c(OC)c2)c2cc(OC)c(OC)cc21 (racemic) [tofisopam] | demonstrates activity in lowering the core body temperature | – | – | interaction with central BZ receptors (central BZ receptors): does not interact; binding to peripheral BZ receptors (peripheral BZ receptors): binds only weakly; IL-2 production (lymphocyte; mitogen-induced): enhances; mitogen-induced lymphocyte proliferation (lymphocyte): enhances
CCC1C(C)=NN=C(c2ccc(O)c(OC)c2)c2cc(OC)c(O)cc21 (stereo not drawn) [Compound 5, 1-(3-methoxy-4-hydroxyphenyl)-4-methyl-5-ethyl-7-hydroxy-8-methoxy-5H-2,3-benzodiazepine] | – | 28.6 | 20 | –
CCC1C(C)=NN=C(c2ccc(OC)c(OC)c2)c2cc(OC)c(O)cc21 (stereo not drawn) [Compound 1, 1-(3,4-dimethoxyphenyl)-4-methyl-5-ethyl-7-hydroxy-8-methoxy-5H-2,3-benzodiazepine] | – | 0 | 20 | –
CC[C@@H]1C(C)=NN=C(c2ccc(OC)c(OC)c2)c2cc(OC)c(OC)cc21 [(S)-tofisopam, (S)-1-(3,4-dimethoxyphenyl)-4-methyl-5-ethyl-7,8-dimethoxy-5H-2,3-benzodiazepine] | more active than either the racemate or the (R)-enantiomer | – | – | –
